Test results from US20080305189A1, “TREATMENT OF ASPIRIN RESISTANCE WITH RADIX SALVIAE MILTIORRHIZAE, ITS EXTRACT AND COMPOSITION” (Tianjin Tasly Pharmaceutical Co., Ltd., priority 2003, published 2008).

Experiments:
[1] = tested on: urinary 11-dehydrothromboxane B2 (TXB2); test: Test Example 3: urinary 11-dehydrothromboxane B2 by immunoenzyme assay, Compound Danshen Tablets study; type: in vivo, human; settings: group mean, n = 50; cardiovascular outpatients with tendency of aspirin resistance; drugs for at least half a year
Excerpt: 150 patients in this study were all selected from the cardiovascular outpatients having the tendency of aspirin resistance. All the patients, including 80 males and 70 females, aged between 70˜85, with the average age of 77. To treat aspirin resistance, 50 patients administered aspirin (aspirin group), 50 patients administered Compound Danshen Tablets (CDT group), and 50 patients administered aspirin and CDT simultaneously (combination therapy group). All the patients administered drugs for at least half a year before sampling.
The urinary sample was the middle section of the first urina of the day. The urinary sample was placed in the liquid nitrogen immediately after sampling and stored at −86□ in a low-temperature refrigerator. The urinary 11-dehydrothromboxane B2 (TXB2) was determined by immunoenzyme assay using the reagent kit of Cayman Chemical company. […] Information about patient grouping was double-blind for researchers and statisticians.

[2] = tested on: urinary 11-dehydrothromboxane B2 (TXB2); test: Test Example 2: urinary 11-dehydrothromboxane B2 by immunoenzyme assay, CDDP study; type: in vivo, human; settings: group mean, n = 50; drugs for at least half a year
Excerpt: This study adopted a reviewing method, and the normal value referred to the research results about aspirin resistance in Australia.
All 178 patients, including 140 males and 38 females, came from the retired personnel of the First Sanatorium, Bafenbu Sanatorium. The patients were aged 70˜87 and the average age was 77.1. 170 patients were randomly selected for sample test and the number of patients whose data could be accepted was 150 (IC20˜IC80). Of those enrolled in the study, in addition to aspirin resistance, 91 patients were afflicted with hypertension, 25 patients were afflicted with hyperlipidemia, 32 patients were afflicted with diabetes, 139 patients were afflicted with coronary heart disease, and 57 patients were afflicted with cerebrovascular diseases. […] All the patients administered drugs for at least half a year before sampling.
The urinary sample was the middle section of the first urina of the day. The urinary sample was placed in the liquid nitrogen immediately after sampling and stored at −86[…] in a low-temperature refrigerator. The urinary 11-dehydrothromboxane B2 (TXB2) was determined by immunoenzyme assay using the reagent kit of Cayman Chemical company. All the experiments were completed in the Biological Institute of Tasly Research Academy. Information about patient grouping was double-blind for researchers and statisticians. […]

Compound: CC(=O)Oc1ccccc1C(=O)O [Aspirin, aspirin]
- Urinary 11-dehydro TXB2, X ± SD [1]: 25.05 ± 10.42 ng/mmol
- Urinary 11-dehydro TXB2, X ± SD [2]: 25.02 ± 10.51 ng/mmol
